In one assay the target is T1, Nanoluciferase-BRD9 fusion protein (3×FLAG-NLuc-BRD9) in SYO-1 cells (Homo sapiens, UniProt Q9H8M2).
T1 construct: expressed in transfected cells; host or cells: SYO-1
T1 sequence (Q9H8M2 1-597): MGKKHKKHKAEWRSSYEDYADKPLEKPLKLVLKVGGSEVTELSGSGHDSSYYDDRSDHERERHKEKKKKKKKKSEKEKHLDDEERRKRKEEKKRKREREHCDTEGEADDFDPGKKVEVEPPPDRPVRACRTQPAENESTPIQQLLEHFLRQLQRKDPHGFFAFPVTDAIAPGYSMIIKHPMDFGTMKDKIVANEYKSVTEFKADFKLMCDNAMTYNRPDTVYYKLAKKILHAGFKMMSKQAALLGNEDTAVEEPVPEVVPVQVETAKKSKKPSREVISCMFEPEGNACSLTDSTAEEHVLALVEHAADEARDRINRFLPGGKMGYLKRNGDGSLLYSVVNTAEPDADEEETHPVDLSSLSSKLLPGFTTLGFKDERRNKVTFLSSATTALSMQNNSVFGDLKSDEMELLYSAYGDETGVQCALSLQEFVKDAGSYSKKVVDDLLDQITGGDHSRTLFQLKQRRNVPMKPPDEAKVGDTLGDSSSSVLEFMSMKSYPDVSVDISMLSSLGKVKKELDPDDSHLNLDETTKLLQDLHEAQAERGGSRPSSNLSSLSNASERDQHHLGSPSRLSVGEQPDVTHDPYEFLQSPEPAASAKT
The assay is described as follows: SYO1 BRD9 NanoLuc degradation assay. The assay is classed as cell-based. To be noted: Table 6B; SYO-1 cells expressing 3×FLAG-NLuc-BRD9, 6 hours incubation, 1 μM top dose; read-out: SYO1 BRD9-NanoLuc degradation IC50. The method, then: Procedure: A stable SYO-1 cell line expressing 3×FLAG-NLuc-BRD9 was generated. On day 0 cells were seeded in 30 μL media into each well of 384-well cell culture plates. The seeding density was 8000 cells/well. On day 1, cells were treated with 30 nL DMSO or 30 nL of 3-fold serially DMSO-diluted compounds (10 points in duplicates with 1 μM as final top dose). Subsequently plates were incubated for 6 hours in a standard tissue culture incubator and equilibrated at room temperature for 15 minutes. Nanoluciferase activity was measured by adding 15 μL of freshly prepared Nano-Glo Luciferase Assay Reagent (Promega N1130), shaking the plates for 10 minutes and reading the bioluminescence using an EnVision reader. • Results: The Inhibition % was calculated using the following formula: % Inhibition=100×(LumHC−LumSample)/(LumHC−LumLC). DMSO treated cells are employed as High Control (HC) and 1 μM of a known BRD9 degrader standard treated cells are employed as Low Control (LC).
Consider `COc1cc(-c2cn(C)c(=O)c3cc(C(=O)NC4CCN(CCCCCOc5ccc6c(c5)C(=O)N(C5CCC(=O)NC5=O)C6=O)CC4F)sc23)cc(OC)c1CN(C)C` (centres unmarked) [Compound D85], for which the DC50 is less than 10 nM. In the case of `COc1cc(-c2cn(C)c(=O)c3cc(C(=O)NC4CCN(CCCCN5CCN(c6ccc7c(c6)C(=O)N(C6CCC(=O)NC6=O)C7=O)CC5)CC4)sc23)cc(OC)c1CN(C)C` (centres unmarked) [Compound D86], the DC50 is less than 10 nM. The same measure, in the same setting: in the case of `COc1cc(-c2cn(C)c(=O)c3cc(C(=O)NC4CCCN(CCCCCOc5ccc6c(c5)C(=O)N(C5CCC(=O)NC5=O)C6=O)CC4)sc23)cc(OC)c1CN(C)C` (centres unmarked) [Compound D87] it was less than 10 nM; in that of `COc1cc(-c2cn(C)c(=O)c3cc(C(=O)NC4CCCN(CCCCCOc5cccc6c5C(=O)N(C5CCC(=O)NC5=O)C6=O)CC4)sc23)cc(OC)c1CN(C)C` (centres unmarked) [Compound D88], greater than 10 nM; in that of `COc1cc(-c2cn(C)c(=O)c3cc(C(=O)NC4CCN(CCCCCOc5ccc6c(c5)C(=O)N(C5CCC(=O)NC5=O)C6=O)CC4)sc23)cc(OC)c1CN(C)C` (centres unmarked) [Compound D89], less than 10 nM. For the compound `COc1cc(-c2cn(C)c(=O)c3cc(C(=O)NC4CCN(CCCCCOc5ccc6c(c5)C(=O)N(C5CCC(=O)NC5=O)C6=O)CC4(F)F)sc23)cc(OC)c1CN(C)C` (centres unmarked) [Compound D90], the DC50 is less than 10 nM.

Still in this assay, the particulars now being: Table 6C; SYO-1 cells expressing 3×FLAG-NLuc-BRD9, 6 hours incubation, 1 μM top dose; read-out: SYO1 BRD9-NanoLuc degradation IC50.
`COc1cc(-c2cn(C)c(=O)c3cc(C#N)sc23)cc(OC)c1CN1CC(C#Cc2ccc3c(c2)C(=O)N(C2CCC(=O)NC2=O)C3)C1` (centres unmarked) [Compound D91]: the DC50 is less than 10 nM. Still for that read-out and setting: for `COc1cc(-c2cn(C)c(=O)c3ccsc23)cc(OC)c1CN1CC(C#Cc2ccc3c(c2)C(=O)N(C2CCC(=O)NC2=O)C3)C1` (centres unmarked) [Compound D92] the value was less than 10 nM; for `COc1cc(Cl)cc(-c2cn(C)c(=O)c3cc(C(=O)NC4CCN(c5ccc6c(c5)C(=O)N(C5CCC(=O)NC5=O)C6)CC4)sc23)c1` (centres unmarked) [Compound D93], less than 10 nM. On to `COc1cc(-c2cn(C)c(=O)c3cc(N4CCC4)sc23)cc(OC)c1CN1CCC(CCN2CCN(c3ccc4c(c3)C(=O)N(C3CCC(=O)NC3=O)C4)CC2)CC1` (centres unmarked) [Compound D94], for which the DC50 was less than 10 nM. With `COc1cc(-c2cn(C)c(=O)c3cc(C(=O)Nc4cccc(OC5CCC(=O)NC5=O)c4)sc23)cc(OC)c1CN(C)C` (centres unmarked) [Compound D95], the DC50 is greater than 100 nM. The same measure, in the same setting: in the case of `COc1cc(OC)cc(-c2cn(C)c(=O)c3cc(C(=O)NC4CCN(c5cccc(OC6CCC(=O)NC6=O)c5)CC4)sc23)c1` (centres unmarked) [Compound D96] it was less than 10 nM; in that of `CNc1cc2c(=O)n(C)cc(-c3cc(OC)c(CN4CCC5(CC4)CN(c4ccc6c(c4)C(=O)N(C4CCC(=O)NC4=O)C6)C5)c(OC)c3)c2s1` (centres unmarked) [Compound D97], less than 10 nM. Same read-out and setting: in the case of `COc1cc(OC)cc(-c2cn(C)c(=O)c3cc(C(=O)NC4CCN(C5CCN(c6ccc7c(c6)C(=O)N(C6CCC(=O)NC6=O)C7)CC5)CC4(F)F)sc23)c1` (centres unmarked) [Compound D98] it was less than 10 nM; in that of `COc1cc(-c2cn(C)c(=O)c3ccsc23)cc(OC)c1CN1CCC(CN2CCC3(CC2)CN(c2ccc4c(c2)C(=O)N(C2CCC(=O)NC2=O)C4)C3)CC1` (centres unmarked) [Compound D99], less than 10 nM.

As to `COc1cc2c(=O)n(C)cc(-c3cc(OC)c(CN4CCC(CN5CCC6(CC5)CN(c5ccc7c(c5)C(=O)N(C5CCC(=O)NC5=O)C7)C6)CC4)c(OC)c3)c2s1` (centres unmarked) [Compound D100], the DC50 is less than 10 nM. Same read-out and setting: in the case of `COc1cc(-c2cn(C)c(=O)c3cc(C#N)sc23)cc(OC)c1CN1CCC(CN2CCC3(CC2)CN(c2ccc4c(c2)C(=O)N(C2CCC(=O)NC2=O)C4)C3)CC1` (centres unmarked) [Compound D101] it was less than 10 nM; in that of `COc1cc(-c2cn(C)c(=O)c3cc(C(=O)NC4CCN(CCC5CCN(c6ccc7c(c6)CN(C6CCC(=O)NC6=O)C7=O)CC5)CC4(F)F)sc23)cc(OC)c1CN(C)C` (centres unmarked) [Compound D102], less than 10 nM.

Consider `Cn1cc(-c2cccc(C(F)(F)F)c2)c2sc(C(=O)NC3CN(c4ccc5c(c4)C(=O)N(C4CCC(=O)NC4=O)C5)C3)cc2c1=O` (centres unmarked) [Compound D103], for which the DC50 is less than 10 nM. On the same count and under the same terms, in the case of `COc1cc(-c2cn(C)c(=O)c3cc(C(=O)NC4CCN(C)CC4(F)F)sc23)cc(OC)c1CN1CC(CN2CCC3(CC2)CN(c2ccc4c(c2)CN(C2CCC(=O)NC2=O)C4=O)C3)C1` (centres unmarked) [Compound D104] it was less than 10 nM. On the same count and under the same terms, for `COc1cc(-c2cn(C)c(=O)c3cc(C(=O)NC4CCN(c5ccc(OC6CCC(=O)NC6=O)cc5)CC4)sc23)cc(OC)c1CN(C)C` (centres unmarked) [Compound D105] the value was less than 10 nM; for `COc1cc(-c2cn(C)c(=O)c3ccsc23)cc(OC)c1CN1CCC2CN(c3ccc4c(c3)C(=O)N(C3CCC(=O)NC3=O)C4)CCC2C1` (centres unmarked) [Compound D106], less than 10 nM; for `COc1cc(-c2cn(C)c(=O)c3ccsc23)cc(OC)c1CN1CCC2(CC1)CN(c1ccc3c(c1)C(=O)N(C1CCC(=O)N(COC(=O)[C@@H](N)C(C)C)C1=O)C3=O)C2` (some centres unmarked) [Compound D107], less than 10 nM. Regarding `COc1cc(-c2cn(C)c(=O)c3cc(C(=O)NC4CCN(c5cccc(OC6CCC(=O)NC6=O)c5)CC4)sc23)cc(OC)c1CN(C)C` (centres unmarked) [Compound D108], the DC50 was less than 10 nM.

In the case of `COc1cc(OC)cc(-c2cn(C)c(=O)c3cc(C(=O)NC4CCN(c5ccc6c(c5)C(=O)N(C5CCC(=O)NC5=O)C6)CC4)sc23)c1` (centres unmarked) [Compound D109], the DC50 was less than 10 nM. On the same count and under the same terms, for `COc1cc(-c2cn(C)c(=O)c3cc(C(C)C)sc23)cc(OC)c1CN1CCC2(CC1)CN(c1ccc3c(c1)C(=O)N(C1CCC(=O)NC1=O)C3)C2` (centres unmarked) [Compound D110] the value was less than 10 nM; for `COc1cc(-c2cn(C)c(=O)c3ccsc23)cc(OC)c1CN1CCC2(CN(c3ccc4c(c3)C(=O)N(C3CCC(=O)NC3=O)C4)C2)C(F)(F)C1` (centres unmarked) [Compound D111], less than 10 nM. Same read-out and setting: in the case of `COc1cc(-c2cn(C)c(=O)c3cc(C(=O)N[C@H]4CCN(CCN5CCN(c6ccc7c(c6)C(=O)N(C6CCC(=O)NC6=O)C7)CC5)CC4(F)F)sc23)cc(OC)c1CN(C)C` (some centres unmarked) [Compound D112] it was less than 10 nM; in that of `COc1cc(-c2cn(C)c(=O)c3ccsc23)cc(OC)c1CN1CCC2CCN(c3ccc4c(c3)C(=O)N(C3CCC(=O)NC3=O)C4)CC2C1` (centres unmarked) [Compound D113], less than 10 nM; in that of `COc1cc(-c2cn(C)c(=O)c3cc(C(=O)NC4CCN(c5ccc6c(c5)C(=O)N(C5CCC(=O)NC5=O)C6)C4)sc23)cc(OC)c1CN(C)C` (centres unmarked) [Compound D114], less than 10 nM. The same measure, in the same setting: in the case of `COc1cc(OC)cc(-c2cn(C)c(=O)c3cc(C(=O)NC4CN(c5ccc6c(c5)C(=O)N(C5CCC(=O)NC5=O)C6)C4)sc23)c1` (centres unmarked) [Compound D115] it was less than 10 nM; in that of `Cn1cc(-c2cccc(C(F)(F)F)c2)c2sc(C(=O)NC3CC4(CCN(c5ccc6c(c5)C(=O)N(C5CCC(=O)NC5=O)C6)CC4)C3)cc2c1=O` (centres unmarked) [Compound D117], less than 10 nM. Consider `COc1cc(-c2cn(C)c(=O)c3cc(C(=O)NC4CCN(c5ccc6c(c5)C(=O)N(C5CCC(=O)NC5=O)C6)CC4(F)F)sc23)cc(F)c1CN(C)C` (centres unmarked) [Compound D118], for which the DC50 was less than 10 nM. The same measure, in the same setting: for `COCc1cc2c(=O)n(C)cc(-c3cc(OC)c(CN4CCC5(CC4)CN(c4ccc6c(c4)C(=O)N(C4CCC(=O)NC4=O)C6)C5)c(OC)c3)c2s1` (centres unmarked) [Compound D119] the value was less than 10 nM. Take `COc1cc2c(=O)n(C)cc(-c3cc(OC)c(CN4CCC5(CC4)CN(c4ccc6c(c4)C(=O)N(C4CCC(=O)NC4=O)C6)C5)c(OC)c3)c2s1` (centres unmarked) [Compound D120]: the DC50 was less than 10 nM.

Source of the values: US12686687B2, “Compounds and uses thereof” (Foghorn Therapeutics Inc., priority 2019, dated 2026).
